{"source": "patent US7645720B2", "about": "“Extreme environment surfactant compositions comprising hydrolysis resistant organomodified disiloxane surfactants” (Momentive Performance Materials Inc., priority 2005, dated 2010)", "assay_type_in_all_cases": "physicochemical", "key": {"[1]": {"test": "Surface tension (Kruss surface tensiometer)", "settings": "0.1 wt % in 0.005M NaCl water", "protocol": "Surface tension was measured using a Kruss surface tensiometer, with a sand blasted platinum blade as the sensor. Solutions of the various components were prepared at 0.1 wt % in 0.005M NaCl water (Deionized), as an equilibrium aid."}, "[2]": {"test": "Spreading of 10 μL droplet on polyacetate film", "settings": "30 seconds", "protocol": "(§1) Spreading was determined by applying a 10 μL droplet, of surfactant solution to polyacetate film (USI, “Crystal Clear Write on Film”) and measuring the spread diameter (mm) after 30 seconds, at a relative humidity between 50 and 70% (at 22 to 25° C.). The solution was applied with an automatic pipette to provide droplets of reproducible volume. Deionized water that was further purified with a Millipore filtration system was used to prepare the surfactant solutions."}, "[3]": {"test": "Hydrolytic stability by HPLC", "settings": "0.5 wt %", "protocol": "Hydrolytic stability was determined for representative compositions of the present invention using HPLC. Solutions of the various compositions were prepared at 0.5 wt % over a pH range from pH 4 to pH 12, and monitored by HPLC for decomposition as a function of time.\n• Detector: ELSD/LTA (Evaporative Light Scattering with Low Temperature Adapter • Conditions: 30° C., 1.95 SLPM N2 • Column: Phenomenex LUNA C18 end cap, 5 micron, 75×4.6 mm • Flow Rate: 1.0 mL/min. • Inj. Volume: 10 microliters • Sample: 0.050 g/mL in methanol"}, "[4]": {"test": "Hydrolytic stability by HPLC"}, "[5]": {"test": "Spreading properties vs time at set pH (resistance to hydrolysis)", "settings": "0.4 wt %", "protocol": "as §1\nTherefore solutions of the organomodified disiloxane surfactants of the present invention, as well as comparative surfactants were prepared at desired use levels and pH. Spreading was determined as a function of time to illustrate resistance to hydrolysis. […]\nSolutions (0.4 wt %) of the surfactants were prepared at pH 4 and pH 5 and spreading properties were observed over time. The test conditions are outlined in Example 8."}}, "data": [{"smiles": "C[Si](C)(C)O[Si](C)(C)CCCOCCOCCOCCOCCOCCOCCOCCOCCOCCOCCOCCO", "note": "[Comparative C, reference compound]", "values": [{"measurement": "Surface Tension", "setting": "[1]", "result": 24.1, "unit": "mN/m"}, {"measurement": "Spread Diameter", "setting": "[2]; 0.1%", "result": 6, "unit": "mm"}, {"measurement": "Spread Diameter", "setting": "[2]; 0.2%", "result": 8, "unit": "mm"}, {"measurement": "Spread Diameter", "setting": "[2]; 0.4%", "result": 9, "unit": "mm"}]}, {"smiles": "C[Si](C)(CCCOCCOCCOCCOCCOCCOCCOCCOCCOCCOCCOCCO)O[Si](C)(C)C1CC2CC1C1C=CCC21", "note": "(stereo not shown) [Comparative D, reference compound]", "values": [{"measurement": "Surface Tension", "setting": "[1]", "result": 32.7, "unit": "mN/m"}, {"measurement": "Spread Diameter", "setting": "[2]; 0.1%", "result": 7, "unit": "mm"}, {"measurement": "Spread Diameter", "setting": "[2]; 0.4%", "result": 6, "unit": "mm"}, {"measurement": "Stability: % Siloxane Surfactant Remaining", "setting": "[3]; pH 5, 48 h", "result": ">95", "unit": "%"}, {"measurement": "Stability: % Siloxane Surfactant Remaining", "setting": "[3]; pH 5, 9 days", "result": 99, "unit": "%"}, {"measurement": "Stability: % Siloxane Surfactant Remaining", "setting": "[3]; pH 7, 48 h", "result": ">95", "unit": "%"}, {"measurement": "Stability: % Siloxane Surfactant Remaining", "setting": "[3]; pH 9, 48 h", "result": ">95", "unit": "%"}, {"measurement": "Stability: % Siloxane Surfactant Remaining", "setting": "[4]; pH 4, 48 h, 0.5 wt %", "result": 82, "unit": "%"}, {"measurement": "Stability: % Siloxane Surfactant Remaining", "setting": "[4]; pH 4, 9 days, 0.5 wt %", "result": 44, "unit": "%"}, {"measurement": "Stability: % Siloxane Surfactant Remaining", "setting": "[4]; pH 7, 9 days, 0.5 wt %", "result": 99, "unit": "%"}, {"measurement": "Stability: % Siloxane Surfactant Remaining", "setting": "[4]; pH 9, 9 days, 0.5 wt %", "result": 99, "unit": "%"}, {"measurement": "Stability: % Siloxane Surfactant Remaining", "setting": "[4]; pH 10, 48 h, 0.5 wt %", "result": ">95", "unit": "%"}, {"measurement": "Stability: % Siloxane Surfactant Remaining", "setting": "[4]; pH 10, 9 days, 0.5 wt %", "result": 99, "unit": "%"}]}, {"smiles": "CC(C)(C)CC(C)(C)c1ccc(OCCOCCOCCOCCOCCOCCOCCOCCOCCOCCO)cc1", "note": "[OPE, Octylphenolethoxylate]", "values": [{"measurement": "Surface Tension", "setting": "[1]", "result": 31.8, "unit": "mN/m"}, {"measurement": "Spread Diameter", "setting": "[2]; 0.4%", "result": 10, "unit": "mm"}]}, {"smiles": "CC(C)C[Si](C)(C)O[Si](C)(C)CCCOCCOCCOCCOCCOCCOCCOCCOCCOCCOCCOCCO", "note": "[Product 4]", "values": [{"measurement": "Surface Tension", "setting": "[1]; listed as 4", "result": 24.1, "unit": "mN/m"}, {"measurement": "Spread Diameter", "setting": "[2]; 0.1%, listed as 4", "result": 8, "unit": "mm"}, {"measurement": "Spread Diameter", "setting": "[2]; 0.2%, listed as 4", "result": 9, "unit": "mm"}, {"measurement": "Spread Diameter", "setting": "[2]; 0.4%, listed as 4", "result": 10, "unit": "mm"}]}, {"smiles": "CC(C)C[Si](C)(C)O[Si](C)(C)CCCOCCOCCOCCOCCOCCOCCOCCOCCOCCOCCOCCO", "note": "[Product 7]", "values": [{"measurement": "Surface Tension", "setting": "[1]; listed as 7", "result": 23.9, "unit": "mN/m"}, {"measurement": "Spread Diameter", "setting": "[2]; 0.1%, listed as 7", "result": 14, "unit": "mm"}, {"measurement": "Spread Diameter", "setting": "[2]; 0.2%, listed as 7", "result": 15, "unit": "mm"}, {"measurement": "Spread Diameter", "setting": "[2]; 0.4%, listed as 7", "result": 25, "unit": "mm"}]}, {"smiles": "C[Si](C)(C)CC[Si](C)(C)O[Si](C)(C)CCCOCCOCCOCCOCCOCCOCCOCCOCCOCCOCCOCCO", "note": "[Product 11]", "values": [{"measurement": "Surface Tension", "setting": "[1]", "result": 24.5, "unit": "mN/m"}, {"measurement": "Spread Diameter", "setting": "[2]; 0.1%", "result": 20, "unit": "mm"}, {"measurement": "Spread Diameter", "setting": "[2]; 0.2%", "result": 21, "unit": "mm"}, {"measurement": "Spread Diameter", "setting": "[2]; 0.4%", "result": 32, "unit": "mm"}, {"measurement": "Spreading Diameter", "setting": "[5]; pH 4, 0 h", "result": 16, "unit": "mm"}, {"measurement": "Spreading Diameter", "setting": "[5]; pH 4, 1 mo", "result": 10, "unit": "mm"}, {"measurement": "Spreading Diameter", "setting": "[5]; pH 4, 1 wk", "result": 8, "unit": "mm"}, {"measurement": "Spreading Diameter", "setting": "[5]; pH 4, 2 wk", "result": 8, "unit": "mm"}, {"measurement": "Spreading Diameter", "setting": "[5]; pH 4, 3 wk", "result": 12, "unit": "mm"}, {"measurement": "Spreading Diameter", "setting": "[5]; pH 4, 1 h", "result": 23, "unit": "mm"}, {"measurement": "Spreading Diameter", "setting": "[5]; pH 4, 4 h", "result": 23, "unit": "mm"}, {"measurement": "Spreading Diameter", "setting": "[5]; pH 4, 24 h", "result": 44, "unit": "mm"}, {"measurement": "Spreading Diameter", "setting": "[5]; pH 4, 48 h", "result": 38, "unit": "mm"}, {"measurement": "Spreading Diameter", "setting": "[5]; pH 4, 72 h", "result": 28, "unit": "mm"}, {"measurement": "Spreading Diameter", "setting": "[5]; pH 5, 0 h", "result": 26, "unit": "mm"}, {"measurement": "Spreading Diameter", "setting": "[5]; pH 5, 1 mo", "result": 42, "unit": "mm"}, {"measurement": "Spreading Diameter", "setting": "[5]; pH 5, 1 wk", "result": 29, "unit": "mm"}, {"measurement": "Spreading Diameter", "setting": "[5]; pH 5, 2 wk", "result": 33, "unit": "mm"}, {"measurement": "Spreading Diameter", "setting": "[5]; pH 5, 3 wk", "result": 33, "unit": "mm"}, {"measurement": "Spreading Diameter", "setting": "[5]; pH 5, 1 h", "result": 23, "unit": "mm"}, {"measurement": "Spreading Diameter", "setting": "[5]; pH 5, 24 h", "result": 24, "unit": "mm"}, {"measurement": "Spreading Diameter", "setting": "[5]; pH 5, 48 h", "result": 32, "unit": "mm"}, {"measurement": "Spreading Diameter", "setting": "[5]; pH 5, 72 h", "result": 35, "unit": "mm"}, {"measurement": "Stability: % Siloxane Surfactant Remaining", "setting": "[4]; pH 4, 3 wk, Stock Solution 2.5 wt %", "result": 79, "unit": "%"}, {"measurement": "Stability: % Siloxane Surfactant Remaining", "setting": "[4]; pH 4, 6 wk, Stock Solution 2.5 wt %", "result": 56, "unit": "%"}, {"measurement": "Stability: % Siloxane Surfactant Remaining", "setting": "[4]; pH 4, 11 wk, Stock Solution 2.5 wt %", "result": 10, "unit": "%"}, {"measurement": "Stability: % Siloxane Surfactant Remaining", "setting": "[4]; pH 4, 96 h, Stock Solution 2.5 wt %", "result": 100, "unit": "%"}, {"measurement": "Stability: % Siloxane Surfactant Remaining", "setting": "[4]; pH 5, 3 wk, Stock Solution 2.5 wt %", "result": 100, "unit": "%"}, {"measurement": "Stability: % Siloxane Surfactant Remaining", "setting": "[4]; pH 5, 6 wk, Stock Solution 2.5 wt %", "result": 100, "unit": "%"}, {"measurement": "Stability: % Siloxane Surfactant Remaining", "setting": "[4]; pH 5, 11 wk, Stock Solution 2.5 wt %", "result": 100, "unit": "%"}, {"measurement": "Stability: % Siloxane Surfactant Remaining", "setting": "[4]; pH 5, 96 h, Stock Solution 2.5 wt %", "result": 100, "unit": "%"}, {"measurement": "Stability: % Siloxane Surfactant Remaining", "setting": "[4]; pH 7, 3 wk, Stock Solution 2.5 wt %", "result": 100, "unit": "%"}, {"measurement": "Stability: % Siloxane Surfactant Remaining", "setting": "[4]; pH 7, 6 wk, Stock Solution 2.5 wt %", "result": 100, "unit": "%"}, {"measurement": "Stability: % Siloxane Surfactant Remaining", "setting": "[4]; pH 7, 11 wk, Stock Solution 2.5 wt %", "result": 100, "unit": "%"}, {"measurement": "Stability: % Siloxane Surfactant Remaining", "setting": "[4]; pH 7, 96 h, Stock Solution 2.5 wt %", "result": 100, "unit": "%"}, {"measurement": "Stability: % Siloxane Surfactant Remaining", "setting": "[4]; pH 9, 3 wk, Stock Solution 2.5 wt %", "result": 100, "unit": "%"}, {"measurement": "Stability: % Siloxane Surfactant Remaining", "setting": "[4]; pH 9, 6 wk, Stock Solution 2.5 wt %", "result": 100, "unit": "%"}, {"measurement": "Stability: % Siloxane Surfactant Remaining", "setting": "[4]; pH 9, 11 wk, Stock Solution 2.5 wt %", "result": 100, "unit": "%"}, {"measurement": "Stability: % Siloxane Surfactant Remaining", "setting": "[4]; pH 9, 96 h, Stock Solution 2.5 wt %", "result": 100, "unit": "%"}, {"measurement": "Stability: % Siloxane Surfactant Remaining", "setting": "[4]; pH 10, 3 wk, Stock Solution 2.5 wt %", "result": 100, "unit": "%"}, {"measurement": "Stability: % Siloxane Surfactant Remaining", "setting": "[4]; pH 10, 6 wk, Stock Solution 2.5 wt %", "result": 100, "unit": "%"}, {"measurement": "Stability: % Siloxane Surfactant Remaining", "setting": "[4]; pH 10, 11 wk, Stock Solution 2.5 wt %", "result": 100, "unit": "%"}, {"measurement": "Stability: % Siloxane Surfactant Remaining", "setting": "[4]; pH 10, 96 h, Stock Solution 2.5 wt %", "result": 100, "unit": "%"}]}]}
